In patent US20250009734A1, “METHODS OF INHIBITING FOXO1 FOR TREATMENT OF LYMPHATIC DISORDERS” (UNIVERSITY OF SOUTH FLORIDA, priority 2023, published 2025):

Tested on: human dermal lymphatic endothelial cells (hdLECs)
Experiment: Western blot quantification of protein levels in cultured hdLECs
Format: cell-based
Conditions: 0.5 μM, 48 hours, vs vehicle control
Description: FIGS. 2A-2F. AS1842856 elevates protein expression of valve genes and promotes b-catenin nuclear localization in cultured hdLECs. (A) hdLECs were cultured under static condition and treated for 48 hours with 0.5 μM DMSO (vehicle control) or 0.5 μM AS treatment. Thereafter, proteins were extracted, and western blot perform for the indicated proteins. ACTB is the loading control. (B) Quantification results of indicated proteins in western blot from three independent experiments. (C-F) Immunostaining of cultured hdLECs for PROX1 and CTNNB1 protein. All values are mean±SEM. n=3 experiment repeats; ns=not significant; *p≤0.05, **p≤0.01, ***p≤0.001. Vehicle control: 0.5 μM DMSO for 48 hours treatment. AS1842856: 0.5 μM AS1842856 for 48 hours treatment. Cells were stained for PROX1 (green) and CTNNB1 (purple). (E) and (F) are the merged images for PROX1 and CTNNB1. Scale bar is 50 μm.
Next, the inventors performed western blot on the cells treated with 0.5 μM for 48 hours to determine whether the expression of these genes on the protein level was consistent with the PCR results. Three independent experiments of cultured hdLECs were performed, similarly to the quantitative RT-qPCR experiments. Protein levels of FOXC2, GATA2, KLF4, ITGα9, GJA4, activated β-catenin, total β-catenin, PROX1, and FOXO1 were quantified from western blot.
Human dermal lymphatic endothelial cells (hdLECs) purchased from Promocell (C-12216) were cultured in EBM-V2 (PromoCell, C-22121) media on fibronectin (20 μl/well) coated 6-well plates. hdLECs were treated with 4 different conditions: DMSO (1 μM), AS1842856 (EMD Millipore Corporation) 0.1 μM, 0.5 μM and 1 μM for 3 different time points: 24, 48, and 72 hours for qRT-PCR. For western blot, hdLECs were treated with 0.5 μM AS1842856 for 48 hours.
hdLECs were washed 3 times with 1×PBS and 1×RIPA buffer and 100× phosphatase inhibitor (Pierce™, Thermoscientific) was added. A cell scraper was used to scrape the hdLECs off the 6-well plate. hdLECs were pipetted and submerged in lysis RIPA solution. The lysate was collected in a 1.5 mL protein LoBind tube and incubated for 15 mins in ice on an orbital shaker (Belly button, IBI Scientific) for complete lysis. The lysates were then centrifuged for 20 mins at 18300 RPM at 4° C. to and the supernatant was collected in a separate Protein LoBind tube without disturbing the pellet. A Bicinchoninic acid assay (BCA assay, Pierce™, Thermofisher) was performed to calculate protein concentration according to manufacturer's instructions and 25 μg of the total protein was utilized to perform the western blot. The Invitrogen™ mini gel tank apparatus was used to run the western blot on a 4-12% Blot™ Bis Tris Plus polyacrylamide gel. Protein transfer to a PVDF membrane was carried out using an iBlot 2 dry blotting system (Lifesciences, Thermofisher) under the P0 module. The iBind Flex western system (Thermo Fisher Scientific) was used to process the mini blots utilizing an incubation time of >2.5 hours after which the blots were imaged using a Bio-Rad ChemiDoc imaging system.
Quantification analysis of western blot bands was performed in the following manner: 1. Unsaturated western blot images (.scn) were opened with Image Lab 6.1 (Bio-Rad); 2. Using the “lane and bands” tool on the left sidebar of Image Lab, the lanes were defined and adjusted manually; 3. Using the “lane and bands” tool, the bands were identified manually with “add” bands option; 4. The “lane profile” tool was used to omit background; 5. The standard and sample lanes were labeled on the “image info” tool; 6. The adjusted volume (Int) value was obtained using the “lane analysis” tool on Image Lab; 7. Each protein's band volume was normalized to the band volume of the housekeeping protein (b-Actin); 8. Relative expression of each protein was calculated by normalizing the band volume of the experimental group (AS 0.5) to its control (DMSO).

CCn1cc(C(=O)O)c(=O)c2c(N)c(F)c(NC3CCCCC3)cc21 [AS1842856]
FOXC2 protein expression level: significantly upregulated
FOXO1 protein expression: did not change
GATA2 protein expression level: significantly upregulated
GJA4 protein expression level: significantly upregulated
ITGA9 protein expression level: significantly upregulated
KLF4 protein expression level: significantly upregulated
PROX1 protein level: did not alter
amount of active (non-phosphorylated) β-catenin protein: increased significantly
amount of p-GSK3β: significantly decreased
amount of total GSK3β: significantly increased
amount of total β-catenin protein: increased significantly
